Values quoted from earlier work in US8412321B2, “Method of identifying strategies for treatment or prevention of ventricular fibrillation and ventricular tachycardia” (Cornell Research Foundation, Inc., priority 2004, dated 2013).

Test system: arterially perfused canine ventricle

In the case of `COc1ccc(CCN(C)CCCC(C#N)(c2ccc(OC)c(OC)c2)C(C)C)cc1OC` (stereo not drawn) [verapamil], the “slope of the APD restitution relation” value (after exposure to verapamil, FIG. 14A) is listed as “reduction in the slope of the APD restitution relation”, the “magnitude of APD alternans (AM)” value (pacing at different basic cycle lengths, FIG. 14B) is listed as “reduction in the magnitude of APD alternans” and the “composite FFT of MAP recordings during VF” value (verapamil added after 35 min of VF, FIG. 14C) is listed as “converted the broad FFT spectra during VF to a single frequency”.
